Series [1] can be described thus: Safety and tolerability. Type of series: in vivo, human. As to conditions: midazolam alone.
Series [2] addresses CYP3A4 (Homo sapiens, UniProt P08684). The series can be described thus: Midazolam interaction study. Type of series: in vivo. As to conditions: for AUC ratio day 1/day−1, point estimate geometric LS means (geometric 90% CI) / AUC ratio day 10/day−1, point estimate geometric LS means (geometric 90% CI): ANOVA.
[3] abbreviates: BAY 2433334 25 mg treatment sequence.
Where [4] appears, read: BAY 2433334 75 mg treatment sequence.
Setting [5] is: BAY 2433334 25 mg OD + Midazolam.
The mark [6] stands for this setting: BAY 2433334 75 mg OD + Midazolam.
The mark [7] stands for this setting: day 1, coadministration of BAY 2433334 25 mg.
[8] abbreviates: day 1, coadministration of BAY 2433334 75 mg.
Setting [9] is: day 10, BAY 2433334 25 mg once daily.

Each structure is given as a SMILES string.

Chain of CYP3A4 (P08684 whole entry): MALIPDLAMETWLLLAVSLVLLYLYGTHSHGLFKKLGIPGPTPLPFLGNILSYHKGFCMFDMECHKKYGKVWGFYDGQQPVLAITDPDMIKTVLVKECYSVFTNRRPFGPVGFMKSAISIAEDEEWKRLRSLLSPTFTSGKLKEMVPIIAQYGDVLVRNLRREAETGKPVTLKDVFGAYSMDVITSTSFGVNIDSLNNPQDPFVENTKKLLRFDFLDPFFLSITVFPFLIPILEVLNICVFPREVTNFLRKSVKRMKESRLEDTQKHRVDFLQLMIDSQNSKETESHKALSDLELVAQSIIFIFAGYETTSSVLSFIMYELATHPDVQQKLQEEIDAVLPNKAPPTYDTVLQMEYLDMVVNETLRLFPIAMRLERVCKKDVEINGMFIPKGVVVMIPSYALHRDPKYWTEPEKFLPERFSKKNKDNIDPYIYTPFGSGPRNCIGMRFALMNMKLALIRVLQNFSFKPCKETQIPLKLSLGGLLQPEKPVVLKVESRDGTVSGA

What is called half-life is the time needed for the level to fall by half in the phase considered. With `Cc1ncc2n1-c1ccc(Cl)cc1C(c1ccccc1F)=NC2` [Midazolam, midazolam], the “Adverse event(s) of special interest” value in series [1] (setting [3]) and in series [1] (setting [4]) was 0 Number (%) in each case. Besides, the “Study drug‐related adverse event(s)” value in series [1] (setting [3]) and in series [1] (setting [4]) was 0 Number (%) in each case. Besides, the “Study procedure‐related adverse event(s)” value in series [1] (setting [3]) is recorded as 3 (12.5%) Number (%); in series [1] (setting [4]), 1 (4.2%) Number (%). In addition, the “AUC ratio day 1/day−1, point estimate geometric LS means (geometric 90% CI)” value in series [2] (setting [5]) is listed as 1.0415 (0.9659–1.1230); in series [2] (setting [6]), 1.0451 (0.9785–1.1164). For the same compound, the “AUC ratio day 10/day−1, point estimate geometric LS means (geometric 90% CI)” value in series [2] (setting [5]) was 1.0630 (0.9859–1.1461); in series [2] (setting [6]) it was 1.1736 (1.0963–1.2564); in series [2] (BAY 2433334 75 mg OD + Midazolam, listed as midazolam), 1.1736 [1.0963–1.2564]. Also, the “increase in the AUC” value was 4.2% in series [2] (setting [7]); 4.5% in series [2] (setting [8]); 6.3% in series [2] (setting [9]); 17% in series [2] (day 10, pre‐ and coadministration of BAY 2433334 75 mg). Moreover, in series [2] (human, plasma, oral, 7.5 mg, t1/2, Day −1, midazolam 7.5 mg alone, BAY 2433334 75 mg OD group, median (range), geometric mean not calculated), the half-life was 287 min. Also, the tmax in series [2] (human, plasma, oral, 7.5 mg, tmax, Day −1, midazolam 7.5 mg alone, BAY 2433334 25 mg OD group, median (range)) was 35 min; in series [2] (human, plasma, oral, 7.5 mg, tmax, Day −1, midazolam 7.5 mg alone, BAY 2433334 75 mg OD group, median (range)), 45 min; in series [2] (human, plasma, oral, tmax, Day 1, midazolam 7.5 mg with BAY 2433334 25 mg OD, median (range)) it was 44.5 min; in series [2] (human, plasma, oral, tmax, Day 1, midazolam 7.5 mg with BAY 2433334 75 mg OD, median (range)), 45 min; in series [2] (human, plasma, oral, tmax, Day 10, midazolam 7.5 mg with BAY 2433334 25 mg OD, median (range)), 45 min; in series [2] (human, plasma, oral, tmax, Day 10, midazolam 7.5 mg with BAY 2433334 75 mg OD, median (range)) it was 45 min.

With `OCc1ncc2n1-c1ccc(Cl)cc1C(c1ccccc1F)=NC2` [α‐Hydroxymidazolam, α‐hydroxymidazolam], the entries for the “AUC ratio day 1/day−1, point estimate geometric LS means (geometric 90% CI)” value in series [2] (setting [5]) and in series [2] (setting [6]) were 1.0650 (0.9661–1.1741) and 0.9856 (0.9206–1.0551), respectively. Besides, the “AUC ratio day 10/day−1, point estimate geometric LS means (geometric 90% CI)” value in series [2] (setting [5]) was 1.0560 (0.9595–1.1622); in series [2] (setting [6]) it was 0.9864 (0.9169–1.0612); in series [2] (BAY 2433334 75 mg OD + Midazolam, listed as α‐hydroxymidazolam), 0.9864 [0.9169–1.0612]. In addition, the tmax in series [2] (Day 1, midazolam 7.5 mg with BAY 2433334 25 mg OD, median (range)) is given as 0.742 (0.500–4.00) h; in series [2] (Day 1, midazolam 7.5 mg with BAY 2433334 75 mg OD, median (range)) it was 0.750 (0.483–4.00) h; in series [2] (Day 10, midazolam 7.5 mg with BAY 2433334 25 mg OD, median (range)) it was 0.750 (0.483–4.00) h; in series [2] (Day 10, midazolam 7.5 mg with BAY 2433334 75 mg OD, median (range)), 0.750 (0.483–2.00) h; in series [2] (Day −1, midazolam 7.5 mg alone, BAY 2433334 25 mg OD group, median (range)) it was 0.708 (0.483–4.00) h; in series [2] (Day −1, midazolam 7.5 mg alone, BAY 2433334 75 mg OD group, median (range)) it was 0.750 (0.500–3.00) h. For the same compound, the “increase in the AUC” value was found to be 4.4% in series [2] (setting [7]) and 6.0% in series [2] (setting [9]). Further, the “decrease in the AUC” value in series [2] (setting [8]) stood at 1.5%. Besides, the “time to maximum plasma concentrations, range across treatments” value in series [2] (with and without BAY 2433334) is 0.583 to 0.750 h.
